# Measured values taken from patent publication US20110173718A1, “HERBICIDE TOLERANT PLANTS” (SYNGENTA CROP PROTECTION, INC., priority 2008, published 2011).
# Several values for one entry are separate records, joined by “and”; a condition that tells them apart may be missing. Equal values may be shown once. Read-outs that look alike come from different tables or passages of the source.
# Assays:
# [1] = tested on: weeds; test: Glasshouse weed control, HST inhibitors alone and with A22, pre-emergence; format: in vivo; details: 336 h, 14 DAT; for pest or weed control at 15.625 g/ha: HST inhibitor rate 15.625 g/ha; for pest or weed control at 62.5 g/ha: HST inhibitor rate 62.5 g/ha; for pest or weed control at 250 g/ha: HST inhibitor rate 250 g/ha
# In short: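 Weeds grown in glasshouse trays (24-27 C day, 18-21 C night, ~15 h photoperiod) and track-sprayed in 0.2% X77 at […], pre-emergence or post-emergence at about 7-12 d. HPPD inhibitor A22 applied at 2 g/ha alone or mixed with HST herbicides. Damage scored 0–100% at 14 DAT; synergy calculated by Colby formula.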
# [2] = tested on: tobacco (var Samsun) plantlets on liquid culture medium; test: HST + HPPD herbicide effects on tobacco seedlings on liquid culture medium; format: in vivo; details: for % bleaching, +mesotrione 0.001 ppm / % bleaching, HST herbicide alone: liquid culture medium, 14 DAT; for % Injury, plus Mesotrione (0.0005 ppm) / % Injury, plus Mesotrione (0.001 ppm) / % Injury (bleaching), compound 2.13 only: 20 DAT
# Experimental: In an alternative herbicide test procedure tobacco (var Samsun) plantlets germinated aseptically in agar made up in 1/3 strength Murashige and Skoog salts medium are transferred after 4 d to float on top of 2.9 ml of sterile liquid culture medium (half strength Murashige and Skoog medium containing 30 mM sucrose) in wells of 12 well plates. Test compounds are added at various doses and bleaching damage is assessed after 14-20 DAT. The plantlets are kept covered under clear perspex and grown at 18° C. (night) and 24° C. (day) under a 1611 day (˜500-900 umol/m^2), 8 h darkness regime Plantlets continue to grow and produce new tissue over the 14-20 DAT period but are bleached and grow less in the presence of controlling concentrations of herbicide.
# [3] = BRAPL, read-out: BRAPL Obs, % control score
# [4] = PANMI, read-out: PANMI Obs, % control score
# [5] = SIDSP, read-out: SIDSP Obs, % control score
# [6] = Digitaria sanguinalis, DIGSA, read-out: DIGSA Obs, % control score
# [7] = Echinochloa crus-galli, ECHCG, read-out: ECHCG Obs, % control score
# [8] = Setaria faberi, SETFA, read-out: SETFA Obs, % control score
# [9] = range of rates of compound 2.13 plus the higher dose of mesotrione
smiles,measurement,setting,value
O=c1c(-c2c(Cl)ccc(Cl)c2Cl)c(O)c2nccnc2n1CC(F)F [Compound 2.14],pest or weed control at 15.625 g/ha,[1]; [3],0%
same,pest or weed control at 62.5 g/ha,[1]; [3],2%
same,pest or weed control at 250 g/ha,[1]; [3],20%
same,pest or weed control at 15.625 g/ha,[1]; [4],0%
same,pest or weed control at 62.5 g/ha,[1]; [4],0%
same,pest or weed control at 250 g/ha,[1]; [4],2%
same,pest or weed control at 15.625 g/ha,[1]; [5],0%
same,pest or weed control at 62.5 g/ha,[1]; [5],0%
same,pest or weed control at 250 g/ha,[1]; [5],5%
same,pest or weed control at 15.625 g/ha,[1]; [6],0%
same,pest or weed control at 62.5 g/ha,[1]; [6],0%
same,pest or weed control at 250 g/ha,[1]; [6],5%
same,pest or weed control at 15.625 g/ha,[1]; [7],0%
same,pest or weed control at 62.5 g/ha,[1]; [7],5%
same,pest or weed control at 250 g/ha,[1]; [7],50%
same,pest or weed control at 15.625 g/ha,[1]; [8],0%
same,pest or weed control at 62.5 g/ha,[1]; [8],2%
same,pest or weed control at 250 g/ha,[1]; [8],20%
O=c1c(-c2c(F)ccc(Br)c2Cl)c(O)c2cccnc2n1CC(F)F [Compound 2.15],"% bleaching, +mesotrione 0.001 ppm",[2]; 0.19 ppm + mesotrione 0.001 ppm,0%
same,"% bleaching, HST herbicide alone",[2]; 0.19 ppm,5%
same,"% bleaching, +mesotrione 0.001 ppm",[2]; 0.58 ppm + mesotrione 0.001 ppm,5%
same,"% bleaching, HST herbicide alone",[2]; 0.58 ppm,0%
same,"% bleaching, +mesotrione 0.001 ppm",[2]; 1.7 ppm + mesotrione 0.001 ppm,80%
same,"% bleaching, HST herbicide alone",[2]; 1.7 ppm,5%
same,"% bleaching, +mesotrione 0.001 ppm",[2]; 5.2 ppm + mesotrione 0.001 ppm,70%
same,"% bleaching, HST herbicide alone",[2]; 5.2 ppm,40%
same,"% bleaching, +mesotrione 0.001 ppm",[2]; 16 ppm + mesotrione 0.001 ppm,100%
same,"% bleaching, HST herbicide alone",[2]; 16 ppm,100%
same,"% bleaching, +mesotrione 0.001 ppm",[2]; 47 ppm + mesotrione 0.001 ppm,100%
same,"% bleaching, HST herbicide alone",[2]; 47 ppm,100%
same,effect of low amounts of mesotrione on the injury down the dose response,"[2]; liquid culture, repeat experiments",clear synergistic effects
same,pest or weed control at 15.625 g/ha,[1]; [3],0%
same,pest or weed control at 62.5 g/ha,[1]; [3],0%
same,pest or weed control at 250 g/ha,[1]; [3],0%
same,pest or weed control at 15.625 g/ha,[1]; [4],0%
same,pest or weed control at 62.5 g/ha,[1]; [4],0%
same,pest or weed control at 250 g/ha,[1]; [4],0%
same,pest or weed control at 15.625 g/ha,[1]; [5],0%
same,pest or weed control at 62.5 g/ha,[1]; [5],0%
same,pest or weed control at 250 g/ha,[1]; [5],0%
same,pest or weed control at 15.625 g/ha,[1]; [6],0%
same,pest or weed control at 62.5 g/ha,[1]; [6],0%
same,pest or weed control at 250 g/ha,[1]; [6],0%
same,pest or weed control at 15.625 g/ha,[1]; [7],0%
same,pest or weed control at 62.5 g/ha,[1]; [7],0%
same,pest or weed control at 250 g/ha,[1]; [7],0%
same,pest or weed control at 15.625 g/ha,[1]; [8],0%
same,pest or weed control at 62.5 g/ha,[1]; [8],0%
same,pest or weed control at 250 g/ha,[1]; [8],0%
O=c1c(-c2c(F)ccc(F)c2Cl)c(O)c2cccnc2n1CC(F)F [Compound 2.13],"% Injury, plus Mesotrione (0.0005 ppm)","[2]; compound 2.13 0.01 ppm + mesotrione 0.0005 ppm, liquid culture",0%
same,"% Injury, plus Mesotrione (0.001 ppm)","[2]; compound 2.13 0.01 ppm + mesotrione 0.001 ppm, liquid culture",40%
same,"% Injury (bleaching), compound 2.13 only","[2]; compound 2.13 0.01 ppm, liquid culture",0%
same,"% Injury, plus Mesotrione (0.0005 ppm)","[2]; compound 2.13 0.03 ppm + mesotrione 0.0005 ppm, liquid culture",0%
same,"% Injury, plus Mesotrione (0.001 ppm)","[2]; compound 2.13 0.03 ppm + mesotrione 0.001 ppm, liquid culture",60%
same,"% Injury (bleaching), compound 2.13 only","[2]; compound 2.13 0.03 ppm, liquid culture",0%
same,"% Injury, plus Mesotrione (0.0005 ppm)","[2]; compound 2.13 0.09 ppm + mesotrione 0.0005 ppm, liquid culture",0%
same,"% Injury, plus Mesotrione (0.001 ppm)","[2]; compound 2.13 0.09 ppm + mesotrione 0.001 ppm, liquid culture",80%
same,"% Injury (bleaching), compound 2.13 only","[2]; compound 2.13 0.09 ppm, liquid culture",0%
same,"% Injury, plus Mesotrione (0.0005 ppm)","[2]; compound 2.13 0.28 ppm + mesotrione 0.0005 ppm, liquid culture",0%
same,"% Injury, plus Mesotrione (0.001 ppm)","[2]; compound 2.13 0.28 ppm + mesotrione 0.001 ppm, liquid culture",80%
same,"% Injury (bleaching), compound 2.13 only","[2]; compound 2.13 0.28 ppm, liquid culture",0%
same,"% Injury, plus Mesotrione (0.0005 ppm)","[2]; compound 2.13 0.85 ppm + mesotrione 0.0005 ppm, liquid culture",40%
same,"% Injury, plus Mesotrione (0.001 ppm)","[2]; compound 2.13 0.85 ppm + mesotrione 0.001 ppm, liquid culture",90%
same,"% Injury (bleaching), compound 2.13 only","[2]; compound 2.13 0.85 ppm, liquid culture",0%
same,"% Injury, plus Mesotrione (0.0005 ppm)","[2]; compound 2.13 2.56 ppm + mesotrione 0.0005 ppm, liquid culture",90%
same,"% Injury, plus Mesotrione (0.001 ppm)","[2]; compound 2.13 2.56 ppm + mesotrione 0.001 ppm, liquid culture",90%
same,"% Injury (bleaching), compound 2.13 only","[2]; compound 2.13 2.56 ppm, liquid culture",0%
same,"% Injury, plus Mesotrione (0.0005 ppm)","[2]; compound 2.13 7.67 ppm + mesotrione 0.0005 ppm, liquid culture",100%
same,"% Injury, plus Mesotrione (0.001 ppm)","[2]; compound 2.13 7.67 ppm + mesotrione 0.001 ppm, liquid culture",100%
same,"% Injury (bleaching), compound 2.13 only","[2]; compound 2.13 7.67 ppm, liquid culture",50%
same,"% Injury, plus Mesotrione (0.0005 ppm)","[2]; compound 2.13 23 ppm + mesotrione 0.0005 ppm, liquid culture",100%
same,"% Injury, plus Mesotrione (0.001 ppm)","[2]; compound 2.13 23 ppm + mesotrione 0.001 ppm, liquid culture",100%
same,"% Injury (bleaching), compound 2.13 only","[2]; compound 2.13 23 ppm, liquid culture",100%
same,bleaching expected (Colby),[2]; [9],20%
same,bleaching observed,[2]; [9],80% and 90%
O=c1c(-c2c(F)ccc(Br)c2Cl)c(O)c2nccnc2n1CC(F)F [Compound 2.8],pest or weed control at 15.625 g/ha,[1]; [3],0%
same,pest or weed control at 62.5 g/ha,[1]; [3],1%
same,pest or weed control at 250 g/ha,[1]; [3],15%
same,pest or weed control at 15.625 g/ha,[1]; [4],0%
same,pest or weed control at 62.5 g/ha,[1]; [4],0%
same,pest or weed control at 250 g/ha,[1]; [4],60%
same,pest or weed control at 15.625 g/ha,[1]; [5],0%
same,pest or weed control at 62.5 g/ha,[1]; [5],0%
same,pest or weed control at 250 g/ha,[1]; [5],2%
same,pest or weed control at 15.625 g/ha,[1]; [6],0%
same,pest or weed control at 62.5 g/ha,[1]; [6],0%
same,pest or weed control at 250 g/ha,[1]; [6],30%
same,pest or weed control at 15.625 g/ha,[1]; [7],0%
same,pest or weed control at 62.5 g/ha,[1]; [7],2%
same,pest or weed control at 250 g/ha,[1]; [7],50%
same,pest or weed control at 15.625 g/ha,[1]; [8],0%
same,pest or weed control at 62.5 g/ha,[1]; [8],0%
same,pest or weed control at 250 g/ha,[1]; [8],10%
O=c1c(-c2cc(C(F)(F)F)ccc2Cl)c(O)c2nccnc2n1CC(F)F [Compound 2.9],pest or weed control at 15.625 g/ha,[1]; [3],0%
same,pest or weed control at 62.5 g/ha,[1]; [3],2%
same,pest or weed control at 250 g/ha,[1]; [3],50%
same,pest or weed control at 15.625 g/ha,[1]; [4],0%
same,pest or weed control at 62.5 g/ha,[1]; [4],0%
same,pest or weed control at 250 g/ha,[1]; [4],60%
same,pest or weed control at 15.625 g/ha,[1]; [5],0%
same,pest or weed control at 62.5 g/ha,[1]; [5],0%
same,pest or weed control at 250 g/ha,[1]; [5],40%
same,pest or weed control at 15.625 g/ha,[1]; [6],0%
same,pest or weed control at 62.5 g/ha,[1]; [6],0%
same,pest or weed control at 250 g/ha,[1]; [6],65%
same,pest or weed control at 15.625 g/ha,[1]; [7],0%
same,pest or weed control at 62.5 g/ha,[1]; [7],0%
same,pest or weed control at 250 g/ha,[1]; [7],60%
same,pest or weed control at 15.625 g/ha,[1]; [8],0%
same,pest or weed control at 62.5 g/ha,[1]; [8],0%
same,pest or weed control at 250 g/ha,[1]; [8],30%
